Data reported in US11780841B2, “3,6-methano-1H-pyrrolo[3,2-b]pyridine and 3,6-methano-1H-pyrrolo[3,2-c]pyridine compounds and medicaments using same” (priority 2018, dated 2023).

The molecules below were run on recombinant rabies virus 1088 strain expressing Gaussia Luciferase (GLuc) (1088/GLuc). Conditions: read-out: Anti-rabies activity.
Format: cell-based

Row | Compound | IC50 [µM]
1 | CC(C)CNC(=O)[C@]12NC[C@H]3C[C@H]1CN(CCO)[C@H]2[C@@H]3Cc1cccc2ccccc12 [IB-621] | < 5
2 | CC(C)CNC(=O)[C@]12NC[C@H]3C[C@H]1CN(CCc1ccccc1)[C@H]2[C@@H]3Cc1ccc(O)cc1 [IB-625] | 10 to 30
3 | CC(C)CNC(=O)[C@]12NC[C@H]3C[C@H]1CN(Cc1ccc(F)cc1)[C@H]2[C@@H]3CC(C)C [IB-630] | < 5
4 | CC(C)CNC(=O)[C@]12NC[C@H]3C[C@H]1CN(Cc1ccc(F)cc1)[C@H]2[C@@H]3Cc1ccc(O)cc1 [IB-631] | 10 to 30
5 | CC(C)CNC(=O)[C@]12NC[C@H]3C[C@H]1CN(CC(C)C)[C@H]2[C@@H]3CCc1ccccc1 [IB-633] | < 5
6 | CC(C)CCN1C[C@@H]2C[C@@H]3CN[C@]2(C(=O)NCCC(N)=O)[C@@H]1[C@@H]3CCc1ccccc1 [IB-636] | 10 to 30
7 | NC(=O)CCNC(=O)[C@]12NC[C@H]3C[C@H]1CN(CC1CCCCC1)[C@H]2[C@@H]3Cc1ccccc1 [IB-637] | < 5
8 | O=C(NCCO)[C@]12NC[C@H]3C[C@H]1CN(CCc1ccccc1)[C@H]2[C@@H]3Cc1ccccc1 [IB-640] | < 5
9 | CC(C)C[C@@H]1[C@H]2CN[C@@]3(C(=O)NCCO)[C@@H](C2)CN(CCc2ccccc2)[C@@H]13 [IB-641] | 10 to 30
10 | O=C(NCc1ccc(F)cc1)[C@]12NC[C@H]3C[C@H]1CN(CCc1ccccc1)[C@H]2[C@@H]3Cc1ccc(O)cc1 [IB-642] | < 5
11 | CC(C)C[C@@H]1[C@H]2CN[C@@]3(C(=O)NCCO)[C@@H](C2)CN(Cc2cccc4ccccc24)[C@@H]13 [IB-643] | 10 to 30
12 | CC(C)C[C@@H]1[C@H]2CN[C@@]3(C(=O)NCCO)[C@@H](C2)CN(CC2CCCCC2)[C@@H]13 [IB-646] | 10 to 30
13 | CC(C)CCNC(=O)[C@]12NC[C@H]3C[C@H]1CN(CC1CCCCC1)[C@H]2[C@@H]3Cc1ccc(O)cc1 [IB-648] | 10 to 30
14 | O=C(NCCO)[C@]12NC[C@H]3C[C@H]1CN(Cc1ccc(F)cc1)[C@H]2[C@@H]3Cc1ccccc1 [IB-649] | 10 to 30
15 | CC(C)C[C@@H]1[C@H]2CN[C@@]3(C(=O)NCCO)[C@@H](C2)CN(Cc2ccc(F)cc2)[C@@H]13 [IB-650] | 10 to 30
16 | CCCCCCNC(=O)[C@]12NC[C@H]3C[C@H]1CN(Cc1ccc(F)cc1)[C@H]2[C@@H]3Cc1ccc(O)cc1 [IB-656] | < 5
17 | CC(C)CC[C@@H]1[C@H]2CN[C@@]3(C(=O)NCc4ccc(F)cc4)[C@@H](C2)CN(CCO)[C@@H]13 [IB-657] | 10 to 30
18 | CC(C)CCN1C[C@@H]2C[C@@H]3CN[C@]2(C(=O)NCCO)[C@@H]1[C@@H]3CCc1ccccc1 [IB-658] | 10 to 30
19 | CC(C)CCN1C[C@@H]2C[C@@H]3CN[C@]2(C(=O)NCCO)[C@@H]1[C@@H]3Cc1cccc2ccccc12 [IB-659] | < 5
20 | O=C(NCCO)[C@]12NC[C@H]3C[C@H]1CN(CC1CCCCC1)[C@H]2[C@@H]3CCc1ccccc1 [IB-663] | < 5
21 | CC(C)CC[C@@H]1[C@H]2CN[C@@]3(C(=O)NCCO)[C@@H](C2)CN(Cc2ccc(F)cc2)[C@@H]13 [IB-668] | < 5
22 | O=C(NCCO)[C@]12NC[C@H]3C[C@H]1CN(Cc1ccc(F)cc1)[C@H]2[C@@H]3CCc1ccccc1 [IB-669] | 10 to 30
23 | O=C(NCCO)[C@]12NC[C@H]3C[C@H]1CN(Cc1ccccc1)[C@H]2[C@@H]3Cc1ccccc1 [IB-676] | 10 to 30

Row | Compound | IC50 [µM]
24 | CC(C)CCNC(=O)[C@]12NC[C@H]3C[C@H]1CN(Cc1ccccc1)[C@H]2[C@@H]3Cc1ccc(O)cc1 [IB-678] | < 5
25 | CC(C)CC[C@@H]1[C@H]2CN[C@@]3(C(=O)NCCO)[C@@H](C2)CN(Cc2ccccc2)[C@@H]13 [IB-680] | 10 to 30
26 | O=C(NCCO)[C@]12NC[C@H]3C[C@H]1CN(Cc1ccccc1)[C@H]2[C@@H]3CCc1ccccc1 [IB-681] | 10 to 30
27 | CC(C)CCNC(=O)[C@]12NC[C@H]3C[C@H]1CN(CC(C)C)[C@H]2[C@@H]3Cc1ccc(O)cc1 [IB-684] | 10 to 30
28 | CC(C)CN1C[C@@H]2C[C@@H]3CN[C@]2(C(=O)NCCO)[C@@H]1[C@@H]3Cc1cccc2ccccc12 [IB-687] | 10 to 30
29 | CC(C)CCNC(=O)[C@]12NC[C@H]3C[C@H]1CN(CC(C)C)[C@H]2[C@@H]3CCc1ccccc1 [IB-688] | < 5
30 | CC(C)CC[C@@H]1[C@H]2CN[C@@]3(C(=O)NCc4ccccc4)[C@@H](C2)CN(CCC(=O)O)[C@@H]13 [IB-694] | 10 to 30
31 | CC(C)CCN1C[C@@H]2C[C@@H]3CN[C@]2(C(=O)NCCC(N)=O)[C@@H]1[C@@H]3Cc1cccc2ccccc12 [IB-703] | < 5
32 | NC(=O)CCNC(=O)[C@]12NC[C@H]3C[C@H]1CN(CCc1ccccc1)[C@H]2[C@@H]3Cc1ccccc1 [IB-707] | < 5
33 | CC(C)C[C@@H]1[C@H]2CN[C@@]3(C(=O)NCCC(N)=O)[C@@H](C2)CN(CCc2ccccc2)[C@@H]13 [IB-708] | < 5
34 | NC(=O)CCNC(=O)[C@]12NC[C@H]3C[C@H]1CN(CC1CCCCC1)[C@H]2[C@@H]3CCc1ccccc1 [IB-710] | < 5
35 | NC(=O)CCNC(=O)[C@]12NC[C@H]3C[C@H]1CN(Cc1ccc(F)cc1)[C@H]2[C@@H]3Cc1ccccc1 [IB-712] | < 5
36 | CC(C)CCNC(=O)[C@]12NC[C@H]3C[C@H]1CN(CCO)[C@H]2[C@@H]3Cc1ccccc1 [IB-714] | < 5
37 | CC(C)C[C@@H]1[C@H]2CN[C@@]3(C(=O)NCCc4ccccc4)[C@@H](C2)CN(Cc2ccc(F)cc2)[C@@H]13 [IB-725] | < 5
38 | CC(C)CCNC(=O)[C@]12NC[C@H]3C[C@H]1CN(CCO)[C@H]2[C@@H]3Cc1cccc2ccccc12 [IB-727] | < 5
39 | NC(=O)CCNC(=O)[C@]12NC[C@H]3C[C@H]1CN(Cc1ccccc1)[C@H]2[C@@H]3Cc1ccccc1 [IB-734] | 10 to 30
40 | CC(C)CN1C[C@@H]2C[C@@H]3CN[C@]2(C(=O)NCCC(N)=O)[C@@H]1[C@@H]3Cc1cccc2ccccc12 [IB-737] | 10 to 30
41 | CC(C)CCNC(=O)[C@]12NC[C@H]3C[C@H]1CN(Cc1ccc(O)cc1)[C@H]2[C@@H]3CC(C)C [IB-739] | 10 to 30
42 | NC(=O)CCNC(=O)[C@]12NC[C@H]3C[C@H]1CN(Cc1ccc(O)cc1)[C@H]2[C@@H]3Cc1cccc2ccccc12 [IB-743] | < 5
43 | CC(C)CCN1C[C@@H]2C[C@@H]3CN[C@]2(C(=O)NCc2ccccc2)[C@@H]1[C@@H]3Cc1ccc(O)cc1 [IB-749] | 10 to 30
44 | CC(C)CCN1C[C@@H]2C[C@@H]3CN[C@]2(C(=O)NCC(C)C)[C@@H]1[C@@H]3CC(C)C [IB-753] | < 5
45 | CC(C)C[C@@H]1[C@H]2CN[C@@]3(C(=O)NCc4ccccc4)[C@@H](C2)CN(CCc2ccccc2)[C@@H]13 [IB-757] | < 5
46 | CC(C)CNC(=O)[C@]12NC[C@H]3C[C@H]1CN(CCc1ccccc1)[C@H]2[C@@H]3Cc1ccccc1 [IB-759] | < 5

Row | Compound | IC50 [µM]
47 | CC(C)CNC(=O)[C@]12NC[C@H]3C[C@H]1CN(CCc1ccccc1)[C@H]2[C@@H]3CC(C)C [IB-760] | < 5
48 | CC(C)CNC(=O)[C@]12NC[C@H]3C[C@H]1CN(Cc1cccc4ccccc14)[C@H]2[C@@H]3CC(C)C [IB-762] | < 5
49 | CC(C)CNC(=O)[C@]12NC[C@H]3C[C@H]1CN(Cc1cccc4ccccc14)[C@H]2[C@@H]3Cc1ccc(O)cc1 [IB-763] | 10 to 30
50 | CC(C)CNC(=O)[C@]12NC[C@H]3C[C@H]1CN(CC1CCCCC1)[C@H]2[C@@H]3Cc1ccc(O)cc1 [IB-770] | 10 to 30
51 | O=C(NCc1ccccc1)[C@]12NC[C@H]3C[C@H]1CN(Cc1ccc(F)cc1)[C@H]2[C@@H]3Cc1ccccc1 [IB-772] | < 5
52 | CC(C)C[C@@H]1[C@H]2CN[C@@]3(C(=O)NCc4ccccc4)[C@@H](C2)CN(Cc2ccc(F)cc2)[C@@H]13 [IB-773] | < 5
53 | CC(C)CNC(=O)[C@]12NC[C@H]3C[C@H]1CN(Cc1ccc(F)cc1)[C@H]2[C@@H]3CCc1ccccc1 [IB-774] | < 5
54 | O=C(NCc1ccccc1)[C@]12NC[C@H]3C[C@H]1CN(Cc1ccccc1)[C@H]2[C@@H]3Cc1cccc2ccccc12 [IB-777] | < 5
55 | CC(C)CCNC(=O)[C@]12NC[C@H]3C[C@H]1CN(CC(C)C)[C@H]2[C@@H]3Cc1ccccc1 [IB-780] | < 5
56 | CC(C)CN1C[C@@H]2C[C@@H]3CN[C@]2(C(=O)NCc2ccccc2)[C@@H]1[C@@H]3Cc1ccc(O)cc1 [IB-783] | 10 to 30
57 | CC(C)CC[C@@H]1[C@H]2CN[C@@]3(C(=O)NCc4ccccc4)[C@@H](C2)CN(Cc2ccc(O)cc2)[C@@H]13 [IB-786] | 10 to 30
58 | CC(C)C[C@@H]1[C@H]2CN[C@@]3(C(=O)NCc4ccccc4)[C@@H](C2)CN(Cc2ccc(O)cc2)[C@@H]13 [IB-787] | 10 to 30
59 | O=C(NCc1cccc2ccccc12)[C@]12NC[C@H]3C[C@H]1CN(Cc1cccc4ccccc14)[C@H]2[C@@H]3CCc1ccccc1 [IB-804] | < 5
60 | NC(=O)CCNC(=O)[C@]12NC[C@H]3C[C@H]1CN(Cc1ccccc1)[C@H]2[C@@H]3Cc1cccc2ccccc12 [IB-813] | < 5
61 | O=C(NCc1ccc(F)cc1)[C@]12NC[C@H]3C[C@H]1CN(CCO)[C@H]2[C@@H]3Cc1cccc2ccccc12 [IB-831] | < 5
62 | CC(C)C[C@@H]1[C@H]2CN[C@@]3(C(=O)NCc4ccccc4)[C@@H](C2)CN(Cc2ccc(Cl)cc2)[C@@H]13 [IB-864] | 5 to 10
63 | CC(C)C[C@@H]1[C@H]2CN[C@@]3(C(=O)NCc4ccccc4)[C@@H](C2)CN(Cc2cccc(Cl)c2)[C@@H]13 [IB-865] | 5 to 10
64 | COc1ccc(CN2C[C@@H]3C[C@@H]4CN[C@]3(C(=O)NCc3ccccc3)[C@@H]2[C@@H]4CC(C)C)cc1 [IB-866] | 5 to 10
65 | Cc1ccc(CN2C[C@@H]3C[C@@H]4CN[C@]3(C(=O)NCc3ccccc3)[C@@H]2[C@@H]4CC(C)C)cc1 [IB-867] | 5 to 10
66 | CC(C)C[C@@H]1[C@H]2CN[C@@]3(C(=O)NCc4ccc(Cl)cc4)[C@@H](C2)CN(CC(C)C)[C@@H]13 [IB-871] | 10 to 30
67 | CC(C)C[C@@H]1[C@H]2CN[C@@]3(C(=O)NCc4ccccc4)[C@@H](C2)CN(Cc2ccc(N(C)C)cc2)[C@@H]13 [IB-873] | 5 to 10
68 | CC(C)C[C@@H]1[C@H]2CN[C@@]3(C(=O)NCc4ccccc4)[C@@H](C2)CN(Cc2ccc(C(C)(C)C)cc2)[C@@H]13 [IB-874] | 5 to 10
69 | CC(C)CC[C@@H]1[C@H]2CN[C@@]3(C(=O)NCc4ccccc4)[C@@H](C2)CN(CC(C)C)[C@@H]13 [IB-875] | 10 to 30
